Read-outs that look alike come from different tables or passages of the source.
How the values were obtained:
[1] = test system: Shionogi mouse mammary carcinoma cells; test: Androgenic/antiandrogenic activity on DHT-stimulated Shionogi cell growth; assay type: cell-based; conditions: Mus musculus
[2] = target: T1, Human Androgen Receptor (Homo sapiens, UniProt P10275); test: Androgen receptor binding assay (hydroxylapatite, [3H]R1881, cytosol of transfected HEK-293 cells); conditions: % RBA=100×IC50 R1881/IC50 compound, transfected cells
T1 sequence (P10275 1-920): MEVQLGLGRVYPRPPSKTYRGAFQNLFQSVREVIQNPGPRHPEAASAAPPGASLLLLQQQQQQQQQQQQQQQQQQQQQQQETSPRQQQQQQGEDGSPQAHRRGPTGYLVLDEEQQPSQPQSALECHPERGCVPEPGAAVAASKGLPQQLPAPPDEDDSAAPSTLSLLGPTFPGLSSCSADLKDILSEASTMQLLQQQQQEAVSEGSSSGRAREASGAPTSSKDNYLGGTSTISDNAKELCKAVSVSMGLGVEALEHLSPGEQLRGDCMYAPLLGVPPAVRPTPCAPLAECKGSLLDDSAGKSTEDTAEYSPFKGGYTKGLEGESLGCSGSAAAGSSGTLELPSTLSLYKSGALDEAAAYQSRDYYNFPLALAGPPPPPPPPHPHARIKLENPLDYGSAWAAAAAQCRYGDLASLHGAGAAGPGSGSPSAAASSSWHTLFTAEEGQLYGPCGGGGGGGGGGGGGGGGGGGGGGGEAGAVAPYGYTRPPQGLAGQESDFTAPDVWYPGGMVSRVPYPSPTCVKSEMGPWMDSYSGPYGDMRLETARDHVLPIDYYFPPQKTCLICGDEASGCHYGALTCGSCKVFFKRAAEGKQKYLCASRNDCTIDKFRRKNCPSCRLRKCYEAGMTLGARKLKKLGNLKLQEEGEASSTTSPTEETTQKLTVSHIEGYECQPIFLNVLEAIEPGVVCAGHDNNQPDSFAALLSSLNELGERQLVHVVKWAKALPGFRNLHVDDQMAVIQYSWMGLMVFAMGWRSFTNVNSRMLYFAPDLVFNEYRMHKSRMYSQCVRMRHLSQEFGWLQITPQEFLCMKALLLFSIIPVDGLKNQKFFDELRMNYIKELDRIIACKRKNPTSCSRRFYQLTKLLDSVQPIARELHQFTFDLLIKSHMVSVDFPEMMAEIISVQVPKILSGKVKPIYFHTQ

[3] = read-out: Shionogi Antiandrogenic activity IC50 (nM), inhibition of DHT-stimulated Shionogi cell number

Row | SMILES | IC50 [1, 3] [nM] | Androgen Receptor Binding (%) Human RBA R1881 = 100 [2] [%] | IC50 ([1]; inhibition of DHT-stimulated Shionogi cell number, read-out: Shionogi Antiandrogenic activity IC50) [nM]
1 | CC(C)(NCc1ccccc1)c1cccc(OCC[C@]23CCC4C(CCC5CC(=O)CC[C@@]54C)C2CC[C@@H]3O)c1 (stereo partly shown) [EM-6708] | 27.5 | 62 | –
2 | CCCN(C1CC1)C(CC)c1cccc(OCC[C@]23CCC4C(CCC5CC(=O)CC[C@@]54C)C2CC[C@@H]3O)c1 (stereo partly shown) [EM-6735] | 3.2 | 2385 | –
3 | CCCC(NC1CCCCC1)c1cccc(OCC[C@]23CCC4C(CCC5CC(=O)CC[C@@]54C)C2CC[C@@H]3O)c1 (stereo partly shown) [EM-6737] | 1.6 | 292.5 | –
4 | CCCC(NC1CCCC1)c1cccc(OCC[C@]23CCC4C(CCC5CC(=O)CC[C@@]54C)C2CC[C@@H]3O)c1 (stereo partly shown) [EM-6738] | 1.7 | 174.2 | –
5 | CCCC(NC1CCCC1)c1cccc(OCC[C@]23CCC4C(CCC5CC(=O)CC[C@@]54C)C2CCC3=O)c1 (stereo partly shown) [EM-6739] | 2.4 | 132.5 | –
6 | CC(C)(c1cccc(OCC[C@]23CCC4C(CCC5CC(=O)CC[C@@]54C)C2CC[C@@H]3O)c1)N1CCCCC1 (stereo partly shown) [EM-6740] | 15 | 42.5 | –
7 | CCC(NC1CCOCC1)c1cccc(OCC[C@]23CCC4C(CCC5=CC(=O)CC[C@@]54C)C2CCC3O)c1 (stereo partly shown) [EM-6765] | 0.2 | 34.6 | –
8 | CCC(NC1CCOCC1)c1cccc(OCC[C@]23CCC4C(CCC5=CC(=O)CC[C@@]54C)C2CCC3(C)O)c1 (stereo partly shown) [EM-6766] | 0.5 | 55.9 | –
9 | CCC(NC1CCOCC1)c1cccc(OCC[C@]23CCC4C(CCC5CC=CC[C@@]54C)C2CCC3O)c1 (stereo partly shown) [EM-6791] | 45.5 | 50.2 | –
10 | CCC(NC1CCS(=O)(=O)CC1)c1cccc(OCC[C@]23CCC4C(CCC5CC(=O)CC[C@@]54C)C2CCC3O)c1 (stereo partly shown) [EM-6836] | 2.4 | 62 | –
11 | CCC(NC1CCSCC1)c1cccc(OCC[C@]23CCC4C(CCC5CC(=O)CC[C@@]54C)C2CCC3O)c1 (stereo partly shown) [EM-6844] | 2.1 | 506 | –
12 | O=C1C=C2CCC3C(CC[C@@]4(CCOc5cccc(C[S+]([O-])c6ccccc6)c5)C3CC[C@@H]4O)C2CC1 (stereo partly shown) [EM-6847] | 46 | 3.2 | –
13 | C[C@]12CCC(=O)CC1CCC1C2CC[C@]2(CCOc3cccc(CNc4ccncc4)c3)C(O)CCC12 (stereo partly shown) [EM-6856] | 32 | 6 | –
14 | CCC(Nc1ccncc1)c1cccc(OCC[C@]23CCC4C(CCC5CC(=O)CC[C@@]54C)C2CCC3O)c1 (stereo partly shown) [EM-6857] | 63 | 5 | –
15 | CCCCS(=O)(=O)Cc1cccc(OCC[C@]23CCC4C5CCC(=O)C=C5CCC4C2CC[C@@H]3O)c1 (stereo partly shown) [EM-6861] | 32 | 3.0 | –
16 | CCC(NC1CCOCC1)c1cccc(OCC[C@]23CCC4C(CCC5Cc6n[nH]cc6C[C@@]54C)C2CCC3O)c1 (stereo partly shown) [EM-6867] | 4.4 | 11.3 | –
17 | CCCC(NC(CC)CC)c1cccc(OCC[C@]23CCC4C(CCC5CCOC[C@@]54C)C2CCC3O)c1 (stereo partly shown) [EM-6876] | – | 44.4 | 16
18 | CCCCC(NC1CCCCC1)c1cccc(OCC[C@]23CCC4C(CCC5CC(=O)CC[C@@]54C)C2CCC3=O)c1 (stereo partly shown) [EM-6894] | 4.1 | 129.7 | –
19 | CCCCC(NC1CCCCC1)c1cccc(OCC[C@]23CCC4C(CCC5CC(=O)CC[C@@]54C)C2CCC3O)c1 (stereo partly shown) [EM-6895] | 4.2 | 115.5 | –

Row | SMILES | IC50 [1, 3] [nM] | Androgen Receptor Binding (%) Human RBA R1881 = 100 [2] [%] | IC50 ([1]; inhibition of DHT-stimulated Shionogi cell number, read-out: Shionogi Antiandrogenic activity IC50) [nM]
20 | CCCCC(NC(CC)CC)c1cccc(OCC[C@]23CCC4C(CCC5CC(=O)CC[C@@]54C)C2CCC3=O)c1 (stereo partly shown) [EM-6896] | 3.2 | 314.6 | –
21 | CC(C)CNC1(c2cccc(OCC[C@]34CCC5C(CCC6CC(=O)CC[C@@]65C)C3CCC4O)c2)CC1 (stereo partly shown) [EM-6905] | 4.4 | 274.8 | –
22 | CCCCC(NC(CC)CC)c1cccc(OCC[C@]23CCC4C(CCC5CC(=O)CC[C@@]54C)C2CCC3O)c1 (stereo partly shown) [EM-6906] | 0.5 | 372 | –
23 | CCC(NC1CCOCC1)c1cccc(OCC[C@]23CCC4C(CCC5Cc6nocc6C[C@@]54C)C2CCC3O)c1 (stereo partly shown) [EM-6908] | 7.4 | 13 | –
24 | CCC(NC(C)C)c1cccc(OCC[C@]23CCC4C(CCC5=CC(=O)CC[C@@]54C)C2CC[C@@H]3O)c1 (stereo partly shown) [EM-6960] | < 0.1 | 147 | –
25 | COCC(NC1CCCCC1)c1cccc(OCC[C@]23CCC4C(CCC5CC(=O)CC[C@@]54C)C2CCC3O)c1 (stereo partly shown) [EM-6972] | 1.2 | 151 | –
26 | CCC(NC1CCOCC1)c1cccc(OCC[C@]23CCC4C(CCC5CC(F)=CC[C@@]54C)C2CCC3O)c1 (stereo partly shown) [EM-6996] | 37.3 | 32 | –
27 | CCC(CC)CNC(CC)(CC)c1cccc(OCC[C@]23CCC4C(CCC5CC(=O)CC[C@@]54C)C2CCC3O)c1 (stereo partly shown) [EM-7001] | 17 | 1981 | –
28 | CCC(CC)CNC(CC)(CC)c1cccc(OCC[C@]23CCC4C(CCC5CC(=O)CC[C@@]54C)C2CCC3=O)c1 (stereo partly shown) [EM-7002] | 23 | 2088 | –
29 | CC[C@H](NC1CCCCC1)c1cccc(OCC[C@]23CCC4C(CCC5CC(=O)CC[C@@]54C)C2CCC3O)c1 (stereo partly shown) [EM-7055] | 0.64 | 242 | –
30 | CC[C@@H](NC1CCCCC1)c1cccc(OCC[C@]23CCC4C(CCC5CC(=O)CC[C@@]54C)C2CCC3O)c1 (stereo partly shown) [EM-7062] | 0.7 | 535 | –
31 | CC[C@@H](NC1CCCCC1)c1cccc(OCC[C@]23CCC4C(CCC5CC(=O)CC[C@@]54C)C2CCC3=O)c1 (stereo partly shown) [EM-7063] | 0.51 | 115 | –
32 | CCC(NC1CCCCC1)c1cncc(OCC[C@]23CCC4C(CCC5CC(=O)CC[C@@]54C)C2CCC3O)c1 (stereo partly shown) [EM-7093] | 0.16 | 361.8 | –
33 | CCC(NC1CCCCC1)c1cncc(OCC[C@]23CCC4C(CCC5=CC(=O)CC[C@@]54C)C2CCC3O)c1 (stereo partly shown) [EM-7094] | 1.4 | 70.8 | –
34 | CCC(NCC1CCCO1)c1ccnc(OCC[C@]23CCC4C(CCC5CC(=O)CC[C@@]54C)C2CC[C@@H]3O)c1 (stereo partly shown) [EM-7104] | 2.8 | 54.3 | –
35 | CCC(c1cncc(OCC[C@]23CCC4C(CCC5CC(=O)CC[C@@]54C)C2CCC3O)c1)N1CCOCC1 (stereo partly shown) [EM-7106] | 81 | 2.5 | –
36 | CCC(NC1CCOCC1)c1cncc(OCC[C@]23CCC4C(CCC5CC(=O)CC[C@@]54C)C2CCC3O)c1 (stereo partly shown) [EM-7107] | 1 | 66.2 | –
37 | CCC1COCC(c2cccc(OCC[C@]34CCC5C(CCC6CC(=O)CC[C@@]65C)C3CCC4O)c2)N1 (stereo partly shown) [EM-7111] | 13 | 39 | –
38 | CN(C)CC(NC1CCCCC1)c1cccc(OCC[C@]23CCC4C(CCC5CC(=O)CC[C@@]54C)C2CCC3O)c1 (stereo partly shown) [EM-7131] | 35 | 125.7 | –
